# Literature values as cited in patent US20060270610A1, “Novel compounds for hypoxic cell therapy and imaging” (priority 2005, published 2006).
# Read-outs that look alike come from different tables or passages of the source.
# Experiments:
# [1] = molecular target: T1, NBMPR (nitrobenzylthioinosine)-sensitive equilibrative nucleoside transporter (Homo sapiens, UniProt Q99808); conditions: in vitro, erythrocytes
# T1 construct: equilibrative nucleoside transporter in erythrocytes; endogenous in cells
# T1 sequence (Q99808 1-456): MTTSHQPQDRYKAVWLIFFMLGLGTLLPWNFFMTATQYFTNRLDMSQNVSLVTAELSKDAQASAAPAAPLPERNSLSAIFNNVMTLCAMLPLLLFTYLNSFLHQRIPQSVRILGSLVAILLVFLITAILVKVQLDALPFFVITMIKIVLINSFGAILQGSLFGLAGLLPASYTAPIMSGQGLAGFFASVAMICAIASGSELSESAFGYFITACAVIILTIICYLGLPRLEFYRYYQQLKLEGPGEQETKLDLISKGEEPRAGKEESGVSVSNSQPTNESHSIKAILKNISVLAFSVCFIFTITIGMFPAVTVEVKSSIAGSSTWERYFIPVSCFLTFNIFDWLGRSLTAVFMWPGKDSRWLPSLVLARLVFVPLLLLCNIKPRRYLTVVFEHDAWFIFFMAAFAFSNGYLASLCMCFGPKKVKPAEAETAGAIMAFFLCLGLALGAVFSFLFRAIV
# [2] = rats, via the renal system; compared with [18F]FMISO
# [3] = tested on: murine tumor models; conditions: three different murine tumor models; greater than [18F]FMISO
compound,measurement,setting,value
"O=[N+]([O-])c1nccn1[C@H]1O[C@H](CI)[C@@H](O)[C@@H]1O [IAZA, 1-α-D-(5-dexoy-5-iodorabinofuranosyl)-2-nitroimidazole]",transport by NBMPR-sensitive equilibrative nucleoside transporter,[1],not transported
O=[N+]([O-])c1nccn1CC(O)C[18F] (stereo not drawn) [[^18F]FMISO],uptake in normal brain tissue,"human, in vivo",taken up non-specifically by brain
O=[N+]([O-])c1nccn1[C@H]1O[C@H](C[18F])[C@@H](O)[C@@H]1O [[^18F] 1-α-D-FAZA],"clearance from blood, viscera and muscle tissue",[2],faster clearance
same,tumor:blood ratios relative to [18F]FMISO,[3],2-4 times
same,uptake in normal brain tissue,patients studied sequentially,absence of [^18F] 1-α-D-FAZA uptake
OC[C@H]1OC(O)[C@H]([18F])[C@@H](O)[C@@H]1O (stereo partly drawn) [[^18F]FDG],uptake in normal brain tissue,"human, in vivo",taken up as a reflection of glucose metabolism in healthy brain
